Assay results from patent publication US20070292901A1, “Methods and kits for evaluating and measuring the oncological status of tissue samples in three-dimensional physiological matrices” (priority 2006, published 2007).

System: Patient Sample GS-640, kidney tissue, renal cell carcinoma
Assay: Three-dimensional gel matrix screening of chemotherapeutics on patient tumor tissue fragments (cell migration/invasion into the gel)
Format: cell-based, human
Details: renal cell carcinoma patient sample GS-640 in gel matrix; for number of cells that have grown and invaded away from the solid tumor fragment / distance of cell migration away from the solid tumor fragment: 5 days after treatment, photomicrograph; for number of cells that have grown and invaded away from the solid tumor fragment: versus control; for response of tumor sample to the drug: treated for 5 days, 37 degree Celsius, 5% CO2, compared with untreated control (FIG. 5)
Description: FIGS. 1-8 are photographic and photomicrographic images which show, by way of example, use of the means and methods of the present invention with respect to a tissue sample removed from a patient. With respect to FIGS. 1-8, Patient Sample GS-640, comprising kidney tissue, was removed from the patient by a surgeon during surgery.
Tissue analysis and screening in accordance with the invention were requested by the surgeon, and proper consent was obtained from the patient prior to surgical removal of a sample quantity of tissue from the RHS Kidney. The patient was diagnosed with renal cell carcinoma. A tissue sample of approximately 1 gram in quantity was removed from the patient during surgery, and was placed into a 25 ml sample jar, and immersed in sterile saline. The tumor tissue was kept at 4 degrees centigrade until processed for the screening of therapeutic compounds in accordance with the means and methods of the invention. All procedures were performed under sterile conditions in a bio-safety laminar flow hood.
FIG. 1: FIG. 1 is a photographic image showing the mechanical division of the sample into portions to be tested. The sample has been prepared by dissecting away any non viable tissue and blood prior to mincing into 1-2 mm pieces using sterile disposable scalpels.
FIG. 2: FIG. 2 is a photographic image showing tumor sample portions which have been placed into each well of a 48 well plate, and been submersed in a gel matrix mixture according to the invention. After insertion of the portions, the mixture was allowed to form into a gel at room temperature for approximately 30 minutes. Once the gel formed around the fully immersed tumor fragments, nutrient rich media was added as a liquid overlay that permeated the entire gel and tumor fragment.
Each different chemotherapy and or dose of chemotherapy was added to a set of 6 wells out of the 48-well plate. A total of 7 different chemotherapies were assessed in this plate. One set of six wells were not treated with drug and thus acted as ‘control conditions’ for tumor fragment growth and invasion. Each of the eight vertical lanes containing six separate wells was marked with a symbol for each chemotherapy/dose used and noted correspondingly on data collection sheets. […] The plates were then placed in a conventional 37 degree Celsius incubator at 5% CO2.
This image is thus representative of all wells at Day 0 with or without chemotherapeutics. Images were made with a 400× magnification phase contrast micrograph using ZEISS camera specs.
Noteworthy is the halo of cells and increased cell density as compared with the results shown at Day 3 of the test. The lines on the images have been drawn to show the distance measurements within which approximately 95% of the migrating cells have migrated away from the margins of the tissue sample.

Row | SMILES | number of cells that have grown and invaded away from the solid tumor fragment | response of tumor sample to the drug | distance of cell migration away from the solid tumor fragment
1 | N.N.[Cl][Pt][Cl] [Cisplatin] | identical in appearance and cell numbers to the control sample | failed chemotherapy | 
2 | CC(=O)O[C@@]12CO[C@@H]1C[C@H](O)[C@@]1(C)C(=O)[C@H](O)C3=C(C)[C@@H](OC(=O)[C@H](O)[C@@H](NC(=O)OC(C)(C)C)c4ccccc4)C[C@@](O)([C@@H](OC(=O)c4ccccc4)[C@H]21)C3(C)C [Docetaxol, Docetaxel] | fewer number of invading cells than the control | moderate response | longer migratory distance than treatment with Taxol
3 | CC(=O)O[C@H]1C(=O)[C@@]2(C)[C@H]([C@H](OC(=O)c3ccccc3)[C@]3(O)C[C@H](OC(=O)[C@H](O)[C@@H](NC(=O)c4ccccc4)c4ccccc4)C(C)=C1C3(C)C)[C@]1(OC(C)=O)CO[C@@H]1C[C@@H]2O [Taxol, Paclitaxel] | drop |  | drop
